According to US8822517B2, “Arylosulfonamides for the treatment of CNS diseases” (Adamed SP. Z O.O., priority 2010, dated 2014):

Assays:
adrenergic α1A receptor = target: T1, adrenergic α1A receptor (Homo sapiens, UniProt P35348); experiment: Cellular functional assay, adrenergic α1A receptor (agonism/antagonism); format: cell-based; conditions: for activation at 1 µM: agonist effect, percent of control specific agonist response, compounds tested at 1×10^−6M, read-out: α1A -ag [%]; for inhibition at 1 µM: read-out: α1A -antag. [%]
T1 sequence (P35348 1-466): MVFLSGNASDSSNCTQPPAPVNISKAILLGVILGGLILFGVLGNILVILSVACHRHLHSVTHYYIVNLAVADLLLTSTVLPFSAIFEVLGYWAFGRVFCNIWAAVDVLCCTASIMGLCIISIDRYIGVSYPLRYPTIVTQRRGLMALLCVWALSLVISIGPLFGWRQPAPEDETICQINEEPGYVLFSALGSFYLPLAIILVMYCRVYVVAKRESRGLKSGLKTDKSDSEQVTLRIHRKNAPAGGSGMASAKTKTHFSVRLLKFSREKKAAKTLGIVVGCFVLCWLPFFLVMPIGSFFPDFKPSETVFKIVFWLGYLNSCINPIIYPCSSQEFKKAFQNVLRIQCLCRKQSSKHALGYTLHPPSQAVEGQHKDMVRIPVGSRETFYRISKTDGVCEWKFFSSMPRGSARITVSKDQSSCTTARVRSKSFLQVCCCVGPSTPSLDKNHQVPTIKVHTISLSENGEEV
Protocol: […]. The compounds were tested at the concentration of 1×10^−6M.
Conditions and methodology (by reference to the literature) of cellular functional assays are given in Table 13 and the tests results for representative compounds are given in Table 14 (dopaminergic receptor D2), in Table 15 (dopaminergic receptor D3), in Table 16 (serotoninergic receptor 5-HT1A), in Table 17 (serotoninergic receptor 5-HT2A), in Table 18 (serotoninergic receptor 5-HT6), in Table 19 (serotoninergic receptor 5-HT7), in Table 20 (adrenergic α1 receptor), in Table 21 (adrenergic α2C receptor), in Table 22 (histaminergic H1 receptor) and in Table 23 (serotoninergic 5-HT2C receptor). In the Tables ag refers to agonism, and antag to antagonism).

[1] = target: serotoninergic 5-HT2A receptor (Homo sapiens, UniProt P28223); experiment: Cellular functional assay, serotoninergic 5-HT2A receptor (agonism/antagonism); format: cell-based; conditions: for activation at 1 µM: read-out: 5-HT2A -ag [%]; for inhibition at 1 µM: read-out: 5-HT2A -antag [%]
Sequence of serotoninergic 5-HT2A receptor (P28223 whole entry): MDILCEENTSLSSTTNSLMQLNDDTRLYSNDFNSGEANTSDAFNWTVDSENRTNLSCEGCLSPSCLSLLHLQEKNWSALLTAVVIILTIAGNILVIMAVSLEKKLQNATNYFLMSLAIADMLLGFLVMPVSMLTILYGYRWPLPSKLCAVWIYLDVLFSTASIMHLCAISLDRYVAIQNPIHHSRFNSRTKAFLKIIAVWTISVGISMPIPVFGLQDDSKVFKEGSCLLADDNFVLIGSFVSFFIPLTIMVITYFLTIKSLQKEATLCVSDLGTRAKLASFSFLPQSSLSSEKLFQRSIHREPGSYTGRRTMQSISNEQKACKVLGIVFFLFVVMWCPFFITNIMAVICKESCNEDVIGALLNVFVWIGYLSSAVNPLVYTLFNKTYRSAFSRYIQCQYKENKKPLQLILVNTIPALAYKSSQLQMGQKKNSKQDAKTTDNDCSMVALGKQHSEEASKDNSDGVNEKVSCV
Outline: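 Human receptors tested in cell-based functional format for both agonist and antagonist modes. Single compound concentration of 1×10^−6M.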

[2] = target: T2, serotoninergic 5-HT7 receptor (Homo sapiens, UniProt P34969); experiment: Cellular functional assay, serotoninergic 5-HT7 receptor (agonism/antagonism); format: cell-based; conditions: for activation at 1 µM: agonist effect, percent of control specific agonist response, compounds tested at 1×10^−6M, read-out: 5-HT7-ag [%]; for inhibition at 1 µM: read-out: 5-HT7-antag. [%]
T2 sequence (P34969 whole entry): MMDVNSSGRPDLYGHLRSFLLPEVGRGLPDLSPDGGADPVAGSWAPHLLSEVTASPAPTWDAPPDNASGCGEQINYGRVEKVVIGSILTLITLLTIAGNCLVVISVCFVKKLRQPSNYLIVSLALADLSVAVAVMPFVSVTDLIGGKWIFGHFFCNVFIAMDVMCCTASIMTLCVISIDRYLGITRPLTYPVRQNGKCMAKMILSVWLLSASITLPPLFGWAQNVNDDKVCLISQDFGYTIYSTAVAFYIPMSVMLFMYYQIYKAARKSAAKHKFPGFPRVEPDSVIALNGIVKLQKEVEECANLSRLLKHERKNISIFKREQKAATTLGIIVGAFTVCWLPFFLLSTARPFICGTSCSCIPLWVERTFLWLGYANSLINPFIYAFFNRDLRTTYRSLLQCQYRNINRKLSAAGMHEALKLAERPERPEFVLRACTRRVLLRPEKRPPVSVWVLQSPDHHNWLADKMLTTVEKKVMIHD
Protocol: (§1) The compounds were tested at the concentration of 1×10^−6M.
(§2) In the Tables ag refers to agonism, and antag to antagonism).

[3] = target: T3, serotoninergic receptor 5-HT2C (Homo sapiens, UniProt P28335); experiment: Binding assay 5-HT2C (h), [3H]mesulergine, HEK-293 cells; conditions: read-out: 5-HT2C [%]
T3 construct: expressed in transfected cells; host or cells: HEK-293 cells
T3 sequence (P28335 33-458): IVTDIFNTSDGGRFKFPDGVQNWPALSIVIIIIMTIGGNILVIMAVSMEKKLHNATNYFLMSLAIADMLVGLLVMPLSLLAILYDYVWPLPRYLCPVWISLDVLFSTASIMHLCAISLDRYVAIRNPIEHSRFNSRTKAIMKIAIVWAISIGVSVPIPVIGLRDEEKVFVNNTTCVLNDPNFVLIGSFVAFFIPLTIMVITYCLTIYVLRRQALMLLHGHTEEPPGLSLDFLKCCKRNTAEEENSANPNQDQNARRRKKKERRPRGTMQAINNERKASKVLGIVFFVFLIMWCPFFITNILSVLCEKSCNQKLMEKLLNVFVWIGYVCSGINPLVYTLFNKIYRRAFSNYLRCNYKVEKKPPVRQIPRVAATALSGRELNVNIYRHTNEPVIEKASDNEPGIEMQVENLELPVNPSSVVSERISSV
Outline: (§3)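 Radioligand displacement at 1×10^−6 M compound, with detection by scintillation counting. Nonspecific signal is measured using an excess of non-radioactive ligand.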

[4] = target: T4, serotoninergic 5-HT1A receptor (Homo sapiens, UniProt P08908); experiment: Cellular functional assay, serotoninergic 5-HT1A receptor (agonism/antagonism); format: cell-based; conditions: for inhibition at 1 µM: CHO, read-out: 5-HT1A-antag. [%]; for activation at 1 µM: agonist effect, percent of control specific agonist response (100 nM 8-OH-DPAT for control), 1×10^−6 M, 5-HT1A (h), CHO cells, read-out: 5-HT1A-ag [%]
T4 sequence (P08908 1-422): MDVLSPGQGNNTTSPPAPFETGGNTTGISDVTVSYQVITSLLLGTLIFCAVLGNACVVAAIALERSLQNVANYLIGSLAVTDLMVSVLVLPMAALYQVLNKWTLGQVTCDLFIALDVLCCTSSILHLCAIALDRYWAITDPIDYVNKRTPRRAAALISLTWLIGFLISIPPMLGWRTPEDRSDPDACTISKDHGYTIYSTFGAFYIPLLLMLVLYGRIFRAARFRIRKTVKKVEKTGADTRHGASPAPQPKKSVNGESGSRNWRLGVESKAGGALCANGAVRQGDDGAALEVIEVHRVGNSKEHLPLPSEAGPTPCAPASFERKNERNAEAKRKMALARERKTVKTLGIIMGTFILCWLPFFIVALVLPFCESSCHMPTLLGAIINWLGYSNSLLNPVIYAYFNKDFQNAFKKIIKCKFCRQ
Protocol: as §1, §2

[5] = target: T5, serotonine transporter (SERT) receptor (Homo sapiens, UniProt P31645); experiment: Binding assay SERT (h), [3H]imipramine, CHO cells; conditions: read-out: SERT [%]
T5 construct: expressed in transfected cells; host or cells: CHO cells
T5 sequence (P31645 whole entry): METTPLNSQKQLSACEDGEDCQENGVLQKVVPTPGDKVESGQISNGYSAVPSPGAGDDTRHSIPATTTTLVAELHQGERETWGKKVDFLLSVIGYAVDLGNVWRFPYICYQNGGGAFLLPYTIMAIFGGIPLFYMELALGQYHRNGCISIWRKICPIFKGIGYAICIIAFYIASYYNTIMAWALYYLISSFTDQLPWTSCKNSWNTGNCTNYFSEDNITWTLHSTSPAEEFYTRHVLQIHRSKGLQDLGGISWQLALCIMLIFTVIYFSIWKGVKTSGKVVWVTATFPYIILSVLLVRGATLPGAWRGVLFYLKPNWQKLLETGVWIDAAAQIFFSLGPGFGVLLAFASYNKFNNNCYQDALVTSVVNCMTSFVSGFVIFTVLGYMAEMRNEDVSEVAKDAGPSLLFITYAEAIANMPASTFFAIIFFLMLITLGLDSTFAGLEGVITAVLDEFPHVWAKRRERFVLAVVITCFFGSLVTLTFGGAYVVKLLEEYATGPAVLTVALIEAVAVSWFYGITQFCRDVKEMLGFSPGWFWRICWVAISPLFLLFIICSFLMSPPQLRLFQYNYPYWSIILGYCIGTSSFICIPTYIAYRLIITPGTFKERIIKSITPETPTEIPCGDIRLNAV
Outline: as §3

[6] = target: T2, serotoninergic 5-HT7 receptor; experiment: Binding assay 5-HT7 (h), [3H]LSD, CHO cells; parameters: expressed in transfected cells; host or cells: CHO cells; conditions: read-out: 5-HT7
Outline: as §3

dopaminergic D2 receptor = dopaminergic D2 receptor (Homo sapiens, UniProt P14416); experiment: Cellular functional assay, dopaminergic D2 receptor (agonism/antagonism); format: cell-based; conditions: HEK293; for activation at 1 µM: agonist effect, percent of control specific agonist response (3 μM dopamine for control), 1×10^−6 M, D2S (h), HEK-293 cells, read-out: D2-ag [%]; for inhibition at 1 µM: read-out: D2-antag. [%]
Sequence of dopaminergic D2 receptor (P14416 whole entry): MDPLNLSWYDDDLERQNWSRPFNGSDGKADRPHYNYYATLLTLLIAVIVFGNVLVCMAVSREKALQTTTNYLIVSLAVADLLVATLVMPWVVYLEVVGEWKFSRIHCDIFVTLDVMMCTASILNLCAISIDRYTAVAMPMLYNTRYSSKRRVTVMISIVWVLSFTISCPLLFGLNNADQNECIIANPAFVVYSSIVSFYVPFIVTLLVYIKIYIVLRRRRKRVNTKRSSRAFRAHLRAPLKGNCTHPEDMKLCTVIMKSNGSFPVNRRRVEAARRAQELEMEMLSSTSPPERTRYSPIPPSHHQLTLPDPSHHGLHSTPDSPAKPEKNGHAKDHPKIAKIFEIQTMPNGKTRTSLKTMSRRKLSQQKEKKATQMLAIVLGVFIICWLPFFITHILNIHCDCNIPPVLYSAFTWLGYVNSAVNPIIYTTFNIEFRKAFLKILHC
Protocol: as §1, §2

[7] = target: serotoninergic 5-HT6 receptor (Homo sapiens, UniProt P50406); experiment: Cellular functional assay, serotoninergic 5-HT6 receptor (agonism/antagonism); format: cell-based; conditions: for activation at 1 µM: agonist effect, percent of control specific agonist response, compounds tested at 1×10^−6M, read-out: 5-HT6-ag [%]; for inhibition at 1 µM: read-out: 5-HT6-antag. [%]
Sequence of serotoninergic 5-HT6 receptor (P50406 whole entry): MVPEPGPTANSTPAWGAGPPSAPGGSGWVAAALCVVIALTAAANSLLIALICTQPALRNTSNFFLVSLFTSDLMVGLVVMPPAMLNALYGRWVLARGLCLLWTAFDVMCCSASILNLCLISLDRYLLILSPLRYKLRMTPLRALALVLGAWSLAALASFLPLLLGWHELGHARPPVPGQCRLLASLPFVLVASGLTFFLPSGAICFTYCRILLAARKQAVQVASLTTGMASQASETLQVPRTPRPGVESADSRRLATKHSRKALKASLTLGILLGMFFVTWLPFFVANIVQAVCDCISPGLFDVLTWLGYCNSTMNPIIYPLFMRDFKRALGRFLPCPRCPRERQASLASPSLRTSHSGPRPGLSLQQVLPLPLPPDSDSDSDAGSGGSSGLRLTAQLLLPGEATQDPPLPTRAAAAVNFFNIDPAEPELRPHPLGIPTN
Protocol: as §1, §2

dopaminergic D3 receptor = dopaminergic D3 receptor (Homo sapiens, UniProt P35462); experiment: Cellular functional assay, dopaminergic D3 receptor (agonism/antagonism); format: cell-based; conditions: for inhibition at 1 µM: CHO, read-out: D3-antag. [%]; for activation at 1 µM: agonist effect, percent of control specific agonist response (300 nM dopamine for control), 1×10^−6 M, D3 (h), CHO cells, read-out: D3-ag [%]
Sequence of dopaminergic D3 receptor (P35462 whole entry): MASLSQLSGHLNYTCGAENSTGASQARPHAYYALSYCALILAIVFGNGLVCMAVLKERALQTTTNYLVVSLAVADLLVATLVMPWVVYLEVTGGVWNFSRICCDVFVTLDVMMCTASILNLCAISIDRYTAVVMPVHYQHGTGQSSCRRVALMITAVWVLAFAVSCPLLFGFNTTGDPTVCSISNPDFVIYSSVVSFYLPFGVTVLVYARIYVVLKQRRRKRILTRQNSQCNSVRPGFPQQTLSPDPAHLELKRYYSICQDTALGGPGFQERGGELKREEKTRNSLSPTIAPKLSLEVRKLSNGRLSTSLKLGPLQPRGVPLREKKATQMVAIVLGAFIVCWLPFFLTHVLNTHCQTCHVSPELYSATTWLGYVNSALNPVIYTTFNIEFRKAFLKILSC
Protocol: as §1, §2

| Structure (SMILES) | activation at 1 µM (adrenergic α1A receptor) [%] | inhibition at 1 µM (adrenergic α1A receptor) [%] | activation at 1 µM [1] [%] | inhibition at 1 µM [1] [%] | activation at 1 µM [2] [%] | inhibition at 1 µM [2] [%] | inhibition at 1 µM [3] [%] | inhibition at 1 µM [4] [%] | activation at 1 µM [4] [%] | inhibition at 1 µM [5] [%] | inhibition at 1 µM [6] [%] | activation at 1 µM (dopaminergic D2 receptor) [%] | inhibition at 1 µM (dopaminergic D2 receptor) [%] | activation at 1 µM [7] [%] | inhibition at 1 µM [7] [%] | inhibition at 1 µM (dopaminergic D3 receptor) [%] | activation at 1 µM (dopaminergic D3 receptor) [%] |
| --- | --- | --- | --- | --- | --- | --- | --- | --- | --- | --- | --- | --- | --- | --- | --- | --- | --- |
| O=c1[nH]c2ccc(S(=O)(=O)NCCCCN3CCN(c4noc5ccccc45)CC3)cc2o1 [Compound 16, N-(4-(4-(1,2-Benzoxazol-3-yl)piperazin-1-yl)butyl)-2-oxo-3H-1,3-benzoxazole-6-sulphonamide] | 0 | 100 | -1 | 98 | -1 | 80 | 53 | 91 | -14 | -3 | 99 | 4 | 98 | 0 | 50 |  |  |
| Cc1c(S(=O)(=O)NCCCCN2CCN(c3nsc4ccccc34)CC2)sc2ccc(F)cc12 [Compound 65, N-[4-[4-(1,2-Benzothiazol-3-yl)piperazin-1-yl]butyl]-5-fluoro-3-methylbenzothiophene-2-sulphonamide] | 0 | 98 | -2 | 98 | -2 | 91 | 95 | 35 | 9 | 57 | 98 | 10 | 74 | -1 | 81 |  |  |
| O=S(=O)(NCCCCN1CCN(c2cccc3[nH]ccc23)CC1)c1cccc(Cl)c1 [Compound 113, N-[4-[4-(1H-Indol-4-yl)piperazin-1-yl]butyl]-3-chlorobenzenesulphonamide] | 1 | 100 |  |  | 9 | 45 | 10 | 92 | 32 | 28 | 97 | 42 | 94 |  |  | 30 | 39 |
| O=S(=O)(NCCCCN1CCN(c2cccc3[nH]ccc23)CC1)c1cnc2ccccn12 [Compound 30, N-{4-[4-(1H-Indol-4-yl)piperazin-1-yl]butyl}-imidazo[1,2-a]pyridine-3-sulphonamide] | 0 | 97 |  |  | 5 | 73 | 11 | 86 | 22 | 14 | 96 | 43 | 97 |  |  | 35 | 52 |
| O=S(=O)(NCCCCN1CCN(c2cccc3[nH]ccc23)CC1)c1ccc(F)cc1 [Compound 359, 4-Fluoro-N-[4-[4-(1H-indol-4-yl)piperazin-1-yl]butyl]benzenesulphonamide] | 1 | 100 |  |  | 8 | 43 | 12 | 94 | 22 | 33 | 95 | 39 | 96 |  |  | 79 | 25 |
| O=S(=O)(NCCCCN1CCN(c2cccc3[nH]ccc23)CC1)c1cccc(F)c1 [Compound 28, 3-Fluoro-N-{4-[4-(1H-indol-4-yl)piperazin-1-yl]butyl}benzenesulphonamide] |  |  |  |  | 4 | 23 | 6 | 27 | 63 | 53 | 92 | 49 | 105 | 0 | 53 | -2 | 59 |
| O=c1[nH]c2cccc(N3CCN(CCCNS(=O)(=O)c4cccc5ccccc45)CC3)c2[nH]1 [Compound 423, N-[3-[4-(2-oxo-1,3-dihydrobenzimidazol-4-yl)piperazin-1-yl]propyl]naphthalene-1-sulphonamide] | 16 | 70 |  |  |  |  | 9 | 73 | 35 | 25 | 88 | 41 | 96 |  |  | 22 | 70 |
| O=S(=O)(NCCCCN1CCN(c2cccc3[nH]ccc23)CC1)c1ccccc1 [Compound 27, N-{4-[4-(1H-Indol-4-yl)piperazin-1-yl]butyl}benzenesulphonamide] | 1 | 100 |  |  | 5 | 8 | -1 | 48 | 56 | -3 | 92 | 40 | 100 |  |  |  |  |
| O=c1[nH]c2cccc(N3CCN(CCCNS(=O)(=O)c4ccc5ccccc5c4)CC3)c2[nH]1 [Compound 424, N-[3-[4-(2-oxo-1,3-dihydrobenzimidazol-4-yl)piperazin-1-yl]propyl]naphthalene-2-sulphonamide] | 39 | 76 |  |  | 18 | 43 | 8 | 75 | 23 | -3 | 95 | 44 | 97 |  |  | 18 | 70 |
